# In patent US20100316574A1, “Oncofetal Antigen/Immature Laminin Receptor Peptides for the Sensitization of Dendritic Cells for Cancer Therapy” (Quantum Immunologics, Inc., priority 2009, published 2010):
# Entries after “also recorded” stand apart in the source; their conditions may differ.
# Key:
# [1] = system: dendritic cells pulsed with recombinant human OFA/iLRP; experiment: FACS binding of fluorescein-labeled 129 and 129-a peptides to dendritic cells pulsed with rHu OFA; format: cell-based; conditions: FITC-labeled peptide on dendritic cells pulsed with rHu OFA 100 ng/ml
# Description: CD 14+ monocytes were grown in serum-free dendritic cell medium containing: 1000 IU/ml GM-CSF and 1000 IU/ml of IL-4 (Cell Genix Antioch, IL) at 1×10^6 cells per ml. The cells were pulsed with rHu OFA at 100 ng/ml for 36 hours. The pulsed dendritic cells were matured using serum-free dendritic cell medium containing: 10 ng/ml IL-1beta, 1000 IU/ml IL-6, and 5 ng/ml TNF-alpha with 1 μm prostaglandin E2 and matured for 2 days. At the end of two days, the cells were scraped from the plate and analyzed using flow cytometry analysis.
# Briefly, the peptide that was labeled on a cysteine included allowing for conjugation using Fluorsceine-5-maledimide (Pierce/Thermo, Rockford, Ill.) following standard protocols. The unbound fluorsceine was removed using a standard dye-removal column (Pierce/Thermo, Rockford, Ill.). This cysteine can also be used to conjugate the peptides to a range of different products.
# To determine if the maturation was successful, the cells were analyzed with CD14, CD83, CD80/86, and Class II MHC (HLA-DR) following standard protocols (R&D systems; Minneapolis, Minn.). Briefly, 0.5×10^5 cells per tube were suspended in 25 μl or phosphate buffered saline with 2% fetal calf serum. […] The cells were resuspended in 400 μl of PBS with 2% FCS and analyzed. If the cells could not be analyzed immediately, then they were fixed in 0.5% formaldehyde/PBS at 4° C. in the dark. […]
# DU145 cells = experiment: CellTiter-Blue cell viability assay; format: cell-based; conditions: for effect on cell viability: compared to peptide diluent control; for cell viability versus controls: overnight
# Description: All cells were grown in RPMI 1640 with L-glutamine; 100 I.U. Penicillin, 100 μg/ml Streptomycin, and 10% fetal calf serum at 37° C. in a humid chamber (Mediatech, Inc. Manassas, Va.). DU 145 cells were obtained from American Type Culture Collection (ATCC, Manassas, Va.) and grown in media following standard protocols. DU145 cells were grown to between 75 and 85% density and collected following standard protocols and counted using a modified Neubauer brightline hemacytometer and suspended at 400,000 cell/ml.
# (§1) Peptides were dissolved in either phosphate buffered saline (PBS) or DMSO and then PBS to a maximum of 20% DMSO and a 2× solution was made and placed into complete medium. After being diluted to appropriate concentration, 50 μl was dispensed into a 96-well assay plate, either coated with laminin/entactin complex (50 μg/ml) or untreated (Black with clear bottom) (Corning Life Sciences, Corning, N.Y.), 50 μl of cells (20,000 cells/well), and were grown overnight. Cells then had 20 μl of CellTiter-Blue added ((Promega, Madison, Wis.)) and incubated for an additional 2 hours at 37° C. Cells were then read on a DTX-880 (Beckman Inc.) following standard fluorescent protocols with an integration time of 0.001 sec. To determine if caspase activity was induced, Caspase 3/7 activity was determined using ApoOne assay (Promega, Madison, Wis.). The data was exported to Excel and then to Prism 5.0 (GraphPad Software, Inc) where it was plotted, and analyzed for statistical differences between the background control (diluents used for the peptide) using a one-way ANOVA.
# Caspase 3/7 = experiment: ApoOne Caspase 3/7 assay; format: cell-based; conditions: DU145; data not shown
# Description: as §1
# T-cells = conditions: previously described epitope; cited from earlier work
substance,measurement,setting,value
"Ac-CADHQPLTEASYVNLPT-amide (Ac-CADHQPLTEASYVNLPT-NH2) [129 peptide, start site 129]",mean fluoresence intesity (MFI),[1],"11,390+/−500.6"
"GRFTPGTFTNQIQAAFREP [peptide 2, start site 101]",effect on cell viability,DU145 cells,significant effect
same,effect on cell viability,DU145 cells; listed as Peptide 2,significantly different than the control
same,decrease of cell viability,"DU145 cells; versus control, p<0.05",over 2 fold
same,Caspase 3/7 activity / induction of apoptosis,Caspase 3/7,no significant change
TWEKLLLAARAIVAIENPAD [peptide 1],cell viability versus controls,DU145 cells; laminin/entactin coated plate (laminin),no statistical difference
same,cell viability versus controls,DU145 cells; uncoated plate (w/o laminin),no statistical difference
"amino acids 49-60: peptide made against the previously described OFA/iLRP epitope (amino acids 49-60), Rohrer 2006 (INLKRTWEKLLL; UniProt P08865 49-60, looked up, fragment) [reference compound]",effect on cell viability,DU145 cells,unable to affect cell viability; also recorded: did not affect cell viability
same,Caspase 3/7 activity / induction of apoptosis,Caspase 3/7,unable to affect cell viability or induce apoptosis
same,T-cell proliferation,T-cells,able to proliferate T-cells
